{"source": "patent US9999611B2", "about": "“SIRT 1 activator including syringaresinol” (AMOREPACIFIC CORPORATION, priority 2011, dated 2018)", "key": {"[1]": {"system": "IL-1b, IL-6. iNOS, COX2, MMP9 and CCR2", "assay": "Inhibition of expression of inflammation-related genes in LPS-treated human PBMCs", "type": "cell-based", "conditions": "human PBMCs pretreated with 50 μM, then 10 ng/mL LPS; compared to cells treated only with LPS; FIG. 19", "method": "After pretreating human PBMCs with 50 μM syringaresinol, inflammatory response was induced by treating with 10 ng/mL LPS, in substantially the same manner as in Test Example 11. The cells treated with each sample were washed with PBS and RNA and cDNA were extracted and synthesized therefrom. Then, the expression pattern of the inflammatory response-related genes IL-1b, IL-6. iNOS, COX2, MMP9 and CCR2 was monitored using the synthesized cDNA and predesigned primers."}, "gingival fibroblasts": {"system": "gingival fibroblasts", "assay": "Cellular activity promoting effect in gingival fibroblasts (MTT assay)", "type": "cell-based, human", "conditions": "cigarette smoke condensate 100 μg/mL, syringaresinol 50 or 100 μg/mL, 2 days, FIG. 3", "method": "Gingival fibroblasts subcultured for 5-6 times in substantially the same manner as in Test Example 1 were seeded onto a 24-well plate, with 1×10^4 cells per well. After culturing for 1 day, cigarette smoke condensate was added with a concentration of 100 μg/mL in substantially the same manner as in Test Example 1 and the syringaresinol obtained in Example was added after dissolving in DMSO to a concentration of 50 or 100 μg/mL. A control group was treated with DMSO corresponding to 1/1000 of the volume of the culture medium. Also, a group which was treated with neither the cigarette smoke condensate nor the test substance was prepared. After culturing for 2 days and adding 300 μL of 3-(4,5-dimethylthiazol-2-yl)-2,5-diphenyltetrazolium bromide (MTT; Sigma, USA) dissolved in physiological saline per each well, the cells were cultured for 4 hours. After removing the culture medium and dissolving formazan crystals by adding 200 μL of dimethyl sulfoxide (DMSO; Junsei, Japan), absorbance was measured at 540 nm using an ELISA reader (Spectra MAX 250, Molecular Devices Co., USA). Each experiment was repeated 3 times."}, "[2]": {"system": "aged retinal cells (ARPE-19)", "assay": "Mitochondrial function recovering effect in aged retinal cells: energy (ATP) production", "type": "cell-based, human", "conditions": "compared to cells treated only with DMSO, FIG. 16", "method": "(§1) The aging of retinal cells was induced while treating with 50 or 100 μM syringaresinol or with DMSO as a negative control, in substantially the same manner as in Test Example 7. For evaluation of mitochondrial function recovering effect, the level of energy (ATP) and reactive oxygen species production in retinal cells was investigated. The energy production was determined by recovering the aged cells after washing with PBS and then with hot water and measuring luminescence using the ATP determination kit (Molecular Probes, Eugene, Oreg., USA) and the Tecan system (Infinite M200, Tecan, Austria). The reactive oxygen species production was measured using a flow cytometer (BD Biosciences, San Jose, Calif., USA) after washing the aged cells with PBS and staining them with the reactive oxygen species detection reagent (H2DCFDA, Invitrogen, Carlsbad, Calif., USA)."}, "[3]": {"system": "aged retinal cells (ARPE-19)", "assay": "Mitochondrial function recovering effect in aged retinal cells: reactive oxygen species production (H2DCFDA, flow cytometer)", "type": "cell-based, human", "conditions": "compared to cells treated only with DMSO, FIG. 16", "method": "as §1"}, "SIRT1": {"system": "SIRT1", "assay": "SIRT1 expression promoting effect in aged human retinal epithelial cells (western blotting)", "type": "cell-based", "conditions": "aged ARPE-19 cells (5 PDL to 15 PDL), FIG. 14", "method": "The SIRT1 gene expression promoting effect of syringaresinol in aged human retinal epithelial cells was evaluated as follows. Human retinal […] cell line ARPE-19 was purchased from ATCC (Manassa, Va., USA) and cultured in a 5% CO2 incubator using DMEM (Gibco BRL, Grand Island, N.Y., USA) containing 10% bovine serum, 1% penicillin/streptomycin, amphotericin B and an antifungal agent until 70% confluency. […] The population doubling level (PDL) was calculated according to the following equation for each generation until the cell growth was stopped. The PDL value is higher in aged cells. PDL=(Log10Y−Log10X)/Log102 Y: number of cells at the end of the generation X: number of cells at the beginning of the generation 5 PDL cells were treated with syringaresinol dissolved in DMSO at a concentration of 50 or 100 μM every other day while inducing aging to 15 PDL cells. The cells of a negative control were treated with DMSO corresponding to 1/1000 of the volume of the culture medium. […] The isolated protein was quantitated using the BCA assay kit (Pierce, Rockford, USA) and 30 μg was subjected to western blotting using the iBlot Dry blotting system (Invitrogen, Carlsbad, Calif., USA). The SIRT1 protein expression level was measured using anti-SIRT1 antibody (Santa Cruz Biotechnology, Santa Cruz, Calif., USA)."}, "ADD1/SREBP1c, ACC, FAS": {"system": "ADD1/SREBP1c, ACC, FAS", "assay": "Expression of fatty acid synthesis-related genes (qRT-PCR)", "type": "cell-based, human", "conditions": "50 μM, vs DMSO control", "method": "Human adipocytes, hepatocytes and myocytes were treated with 50 μM syringaresinol and washed with PBS in substantially the same manner as in Test Example 3. RNA was extracted from the cells and cDNA was synthesized therefrom. The change in expression pattern of fatty acid synthesis-related genes such as ADD1/SREBP1c, ACC, FAS, etc. and fatty acid oxidation-related genes such as ACO, CPT1, mCAD, etc. was measured by qRT-PCR."}}, "data": [{"molecule": "COc1cc(C2OCC3C(c4cc(OC)c(O)c(OC)c4)OCC23)cc(OC)c1O", "note": "(centres unmarked) [syringaresinol]", "values": [{"measurement": "decreased expression of the inflammatory response-related genes", "setting": "[1]", "result": "about 90%"}, {"measurement": "cellular activity (MTT, absorbance at 540 nm)", "setting": "gingival fibroblasts", "result": "recovered cellular activity, which had been decreased due to smoking, to a level substantially comparable to the normal level"}, {"measurement": "increased energy (ATP) production", "setting": "[2]; 50 μM", "result": "about 21%"}, {"measurement": "increased energy (ATP) production", "setting": "[2]; 100 μM", "result": "~33", "unit": "%"}, {"measurement": "decreased reactive oxygen species production", "setting": "[3]; 50 μM", "result": "about 7%"}, {"measurement": "decreased reactive oxygen species production", "setting": "[3]; 100 μM", "result": "~11", "unit": "%"}, {"measurement": "SIRT1 protein expression", "setting": "SIRT1; 100 μM every other day", "result": "increased SIRT1 expression to a level comparable to that of young retinal epithelial cells"}, {"measurement": "SIRT1 protein expression", "setting": "SIRT1; 50 or 100 μM every other day", "result": "increased SIRT1 expression, which had been decreased in aged retinal cells, in a concentration-dependent manner"}, {"measurement": "expression of fatty acid synthesis-inducing genes", "setting": "ADD1/SREBP1c, ACC, FAS; human adipocytes, FIG. 5", "result": "suppressed the expression of fatty acid synthesis-inducing genes"}, {"measurement": "expression of fatty acid synthesis-inducing genes", "setting": "ADD1/SREBP1c, ACC, FAS; human hepatocytes, FIG. 6", "result": "suppressed the expression of fatty acid synthesis-inducing genes"}, {"measurement": "expression of fatty acid synthesis-inducing genes", "setting": "ADD1/SREBP1c, ACC, FAS; human myocytes, FIG. 7", "result": "suppressed the expression of fatty acid synthesis-inducing genes"}]}]}
